According to US20230265481A1, “METHOD FOR MEASURING THE PROTEASE ACTIVITY OF C3 AND C5 CONVERTASE OF THE ALTERNATIVE COMPLEMENT PATHWAY” (Alexion Pharmaceuticals, Inc., priority 2015, published 2023):

How the values were obtained:
Factor D = target: T1, Factor D (Homo sapiens, UniProt P00746); test: BLI biosensor assay of Factor D cleavage of Factor B, anti-Bb antibody binding; type: biochemical
T1 construct: purchased Comptech (Tyler TX)

C5 convertase = C5 convertase activity on bio-C3b streptavidin-coated spheres, C5a measured with MSD (ECL) assay; type: biochemical; settings: for ECL signal (amount of C5a produced by C5 convertase): C5 100 nM, 60 minutes
Experimental: The bio-C3b binding to streptavidin was performed in a 2.0 ml micro-centrifuge tube. Two hundred and forty […] of Spherotech beads, […] diameter, streptavidin coated spheres were first washed by centrifugation with 300 μL of 10 mM Tris, pH 8, and then resuspended in 200 μL of 10 mM Tris, pH 8. The spheres were incubated with bio-C3b or C3b at a concentration of 320 nM. Spheres were suspended by gentle shaking at 1350 RPM for 20 minutes at room temperature, and collected by centrifugation at 16 RCF for 10 minutes. The residual supernatant was removed and the beads are then washed to remove residual unbound bio-C3b.
C5 convertase was formed on the spheres by incubating the bio-C3b spheres with a Convertase Solution that included components of the AP, a divalent cation and buffer. The Convertase Solution consisted of Factor D, (10 nM), Factor B (400 nM), and NiCl2 (200 μM) in 10 mM Tris, pH 8.0. The spheres were suspended by gentle shaking at 1350 RPM for 20 minutes at 37° C. The spheres were centrifuged at 16×g (RCF) for 10 minutes, the supernatant is removed, and the spheres are resuspended in 1.2 ml of 10 mM Tris pH 8, 1 mM EDTA to a final concentration of 200 μg/ml.
Formation of C5a was accomplished by incubating C5, and the spheres in a Reaction Solution that included a divalent cation. The Reaction Solution was prepared by transferring to a microplate well: (i) […] of spheres with C5 convertase in 10 μl of the Convertase Solution; (ii) […] of a 500 μM NiCl2 solution; and (iii) […] of a 250 nM solution of C5 (5 pmoles). […]
Following the incubation, the reaction was stopped by adding 10 μL of a 500 mM EDTA in 10 mM Tris, pH=8.0. (Total Volume=60 μl)
The amount of C5a in the Reaction Solution was measured with an MSD assay, similar to an ELISA. The neo-epitope anti-C5a antibody, BNJ383, captured soluble C5a, binding it to a well in a microplate. BNJN383 has a high affinity for C5a but a low affinity for C5. The detection reagent was a mouse anti-C5a antibody that binds the C5a captured on the plate, and a SULFO-TAG™ modified anti-mouse secondary antibody that bound the mouse antibody, and generated an ECL signal.
To wells of a high binding 96-well microplate (MSD Catalog No. L15XB-3) was added BNJ383 (0.3 pmoles,)[…]/mL in 25 μL of a carbonate-bicarbonate buffer at pH 9.4. The microplate was sealed and incubated at 37° C. for 60 minutes. […]
The wells were sealed with a foil seal and incubated in the dark for 30 minutes. […] One hundred and fifty μL of 2X MSD Read Buffer containing tripropylamine as an electron carrier was added to the wells using a negative pipetting technique. The microplate was read on an MSD imager to measure the ECL signal generated by the SULFO-TAG™ affixed to the goat secondary antibody. […]

T1 sequence (P00746 26-253): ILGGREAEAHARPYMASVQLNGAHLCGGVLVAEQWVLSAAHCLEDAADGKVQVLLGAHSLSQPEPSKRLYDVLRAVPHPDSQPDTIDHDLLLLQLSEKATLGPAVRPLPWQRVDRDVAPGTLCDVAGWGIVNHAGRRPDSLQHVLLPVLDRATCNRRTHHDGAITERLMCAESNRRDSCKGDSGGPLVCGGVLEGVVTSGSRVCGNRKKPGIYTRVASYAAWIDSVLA

Compound	Effect on Factor D activity (Factor D; DCIC 23 μM and 35 μM)	Effect on Factor D activity (Factor D; DCIC 178 μM, 267 μM and 400 μM)	Effect on convertase activity (C5 convertase; OmCI 50 nM)	ECL signal (amount of C5a produced by C5 convertase) (C5 convertase; OmCI 50 nM)	drop of ECL signal (C5 convertase; OmCI 100 nM)	ECL signal (amount of C5a produced by C5 convertase) (C5 convertase; OmCI 100 nM)
O=c1oc(Cl)c(Cl)c2ccccc12 [DCIC, 3,4-Dichloroisocoumarin]	minimal effect	maximally inhibited				
OmCI: tick saliva complement inhibitor, a C5 binding protein that reduces access of the C5 convertase to the C5 cleavage site			essentially no effect	40,000	8 fold	5000
